# Assay results taken from patent US20220242846A1, “ISOINDOLINONE COMPOUNDS” (Monte Rosa Therapeutics AG, priority 2019, published 2022).
# Molecular target: T1, ZFP91 (Homo sapiens, UniProt Q96JP5)
# T1 construct: MM1S cells were purchased from ATCC (cat. Number CRL-2974); endogenous in cells; host or cells: MM1S (ATCC CRL-2974)
# Assay: Selectivity determination by Western Blot assay in MM1S cells: ZFP91
# Assay type: cell-based
# Set-up: key: A represents a no degradation observed at 30 μM; B represents trace degradation at 30 μM (below 20%); C represents weak degradation at 30 μM (below 50%); D represents degradation at 30 μM (>90%); E represents degradation at 3 μM (>90%); F represents degradation at 0.3 μM (>90%)
# Details: MM1S cells, 0.3, 3 and 30 μM, 6 hours
# Method: (§1) CK1alpha/Ikaros/Aiolos/ZFP91 Selectivity determination by Western Blot Assay
# (§2) MM1S cells were purchased from ATCC (cat. Number CRL-2974), sub-cultured in 90% RPMI 1640 with 10% FBS, supplemented with 1× P/S and incubated at 37° C., 5% CO2. Compounds were stored as 10 mM DMSO stock. For the assay, MM1S cells (3 million cells/well) were plated in 6-well plates and incubated over night. Cells were treated with respective compounds using a serial dilution: 0.3 μM, 3 μM and 30 μM as well as a vehicle only (DMSO) control for 6 hours. Media with suspension cells was subsequently transferred to 15 mL conical tubes, wells rinsed twice with ice-cold PBS and merged with cell suspension in respective 15 mL conical tube. Cells were spinned down, supernatant aspirated, pellets resuspended in ice-cold PBS and transferred to microtubes. Cells were spinned down, supernatant aspirated and pellets resuspended in 120 μL RIPA lysis buffer supplemented with protease and phosphatase inhibitors. Cell lysates were incubated on ice for 20 minutes followed by centrifugation at >20,000×g for 5 mM. Supernatants were transferred to fresh microtubes and stored at −80° C. Total protein concentration was determined using a BCA assay with a BSA standard curve and concentration of all samples was adjusted to 1 mg/mL. 25 μL 4× LDS sample buffer supplemented with 100 mM DTT was added to 75 μL sample. Samples were centrifuged (8,000×g, 1 min) and incubated at 95° C. for […] followed by another centrifugation step (8,000×g, 1 mM). 20 μL of each sample was loaded on a 4-12% gel alongside a protein molecular weight marker. Gels were run in the presence of MOPS buffer at 80 Volts for […], followed by 120 Volts for 1.5 h and proteins subsequently transferred onto nitrocellulose membranes at 20 Volts for 7 mM using an iBlot2 Gel Transfer Device. Membranes were then cut horizontally into two pieces, covering 80-50 kDa and 50-25 kDa. Blocking the membranes was performed by gently shaking in 5% (w/v) skim milk in TSB-T for 1 hr at room temperature. All primary antibodies were used at a 1/1000 in 5% (w/v) BSA dissolved in TBST and incubated with membranes over night at 4° C. After three washes with 1× TBST for 5 mM, HRP-coupled secondary antibodies diluted in 5% (w/v) BSA/TBST (Goat Anti-Rb IgG, dil. 1/10,000; Goat Anti-Mouse IgG, dil. 1/5000) were added for 1 hr at room temperature. After three washes with 1× TBST (5 minutes each), membranes were incubated with ECL reagent for 1 mM at room temperature. Chemiluminescence signals were then detected using a LAS-4000 system with default settings and signals quantified using Image Studio Lite software (version 5.2). Membrane parts previously incubated with antibody against CK1alpha were stripped off antibodies by incubating with stripping buffer for 30 minutes followed by three washed with TBST (5 mM each), blocking with 5% (w/v) skim milk for 1 hr, and incubation with primary antibody against GAPDH overnight at 4° C. Subsequent washes, incubation with secondary antibody and signal acquisition were performed as described above.
# (§3) Table 5 assigns each compound a code indicating the ability for the degradation of IKZF1, IKZF3, CK1alpha and ZFP91: A, B, C, D, E or F. According to the code, A represents a no degradation observed at 30 μM, B represents trace degradation at 30 μM (below 20%), C represents weak degradation at 30 μM (below 50%), D represents degradation at 30 μM (>90%), E represents degradation at 3 μM (>90%) and F represents degradation at 0.3 μM (>90%).
# T1 sequence (Q96SW2 whole entry partner): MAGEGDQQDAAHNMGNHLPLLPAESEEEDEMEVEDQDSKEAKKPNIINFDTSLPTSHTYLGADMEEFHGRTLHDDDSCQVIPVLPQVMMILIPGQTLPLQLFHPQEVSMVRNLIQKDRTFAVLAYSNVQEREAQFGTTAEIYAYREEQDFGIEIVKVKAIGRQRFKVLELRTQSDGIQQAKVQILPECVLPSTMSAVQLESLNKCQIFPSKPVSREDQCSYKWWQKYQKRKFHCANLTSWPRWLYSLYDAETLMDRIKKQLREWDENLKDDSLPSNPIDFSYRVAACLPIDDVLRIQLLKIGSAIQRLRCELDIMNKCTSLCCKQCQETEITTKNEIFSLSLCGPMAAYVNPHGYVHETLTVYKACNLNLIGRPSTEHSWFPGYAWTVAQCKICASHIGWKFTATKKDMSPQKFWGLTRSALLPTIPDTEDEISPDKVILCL
# T1 sequence (Q16531 2-1140 partner limits assumed): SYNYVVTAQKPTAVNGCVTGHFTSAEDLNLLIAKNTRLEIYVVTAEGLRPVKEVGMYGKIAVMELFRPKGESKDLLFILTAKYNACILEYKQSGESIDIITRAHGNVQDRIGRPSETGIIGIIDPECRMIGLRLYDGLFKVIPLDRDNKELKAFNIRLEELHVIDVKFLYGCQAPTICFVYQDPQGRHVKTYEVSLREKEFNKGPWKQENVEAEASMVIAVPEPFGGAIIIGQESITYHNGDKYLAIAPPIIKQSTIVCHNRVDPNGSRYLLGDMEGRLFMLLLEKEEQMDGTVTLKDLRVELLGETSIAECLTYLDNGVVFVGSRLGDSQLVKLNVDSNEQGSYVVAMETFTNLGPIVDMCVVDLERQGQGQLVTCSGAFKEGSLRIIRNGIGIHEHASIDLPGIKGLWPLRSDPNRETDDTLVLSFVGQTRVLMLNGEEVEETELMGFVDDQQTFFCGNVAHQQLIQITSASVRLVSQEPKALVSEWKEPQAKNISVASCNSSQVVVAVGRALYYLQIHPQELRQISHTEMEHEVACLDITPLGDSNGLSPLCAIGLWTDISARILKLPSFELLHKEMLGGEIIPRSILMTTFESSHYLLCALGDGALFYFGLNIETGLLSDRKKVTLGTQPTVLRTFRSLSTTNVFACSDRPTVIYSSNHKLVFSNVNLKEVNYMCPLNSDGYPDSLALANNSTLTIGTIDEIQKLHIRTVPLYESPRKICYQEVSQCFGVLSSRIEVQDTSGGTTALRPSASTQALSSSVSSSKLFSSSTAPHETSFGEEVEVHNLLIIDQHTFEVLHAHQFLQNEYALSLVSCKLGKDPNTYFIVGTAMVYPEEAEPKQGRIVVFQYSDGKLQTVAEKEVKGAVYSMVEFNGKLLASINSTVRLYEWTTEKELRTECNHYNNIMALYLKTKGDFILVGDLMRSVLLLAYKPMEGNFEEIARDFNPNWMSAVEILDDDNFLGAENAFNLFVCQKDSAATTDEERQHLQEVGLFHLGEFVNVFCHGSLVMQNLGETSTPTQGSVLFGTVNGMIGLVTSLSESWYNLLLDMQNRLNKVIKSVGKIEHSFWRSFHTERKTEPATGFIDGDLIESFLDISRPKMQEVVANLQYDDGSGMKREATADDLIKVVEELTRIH
# T1 sequence (Q96JP5 2-570 limits assumed): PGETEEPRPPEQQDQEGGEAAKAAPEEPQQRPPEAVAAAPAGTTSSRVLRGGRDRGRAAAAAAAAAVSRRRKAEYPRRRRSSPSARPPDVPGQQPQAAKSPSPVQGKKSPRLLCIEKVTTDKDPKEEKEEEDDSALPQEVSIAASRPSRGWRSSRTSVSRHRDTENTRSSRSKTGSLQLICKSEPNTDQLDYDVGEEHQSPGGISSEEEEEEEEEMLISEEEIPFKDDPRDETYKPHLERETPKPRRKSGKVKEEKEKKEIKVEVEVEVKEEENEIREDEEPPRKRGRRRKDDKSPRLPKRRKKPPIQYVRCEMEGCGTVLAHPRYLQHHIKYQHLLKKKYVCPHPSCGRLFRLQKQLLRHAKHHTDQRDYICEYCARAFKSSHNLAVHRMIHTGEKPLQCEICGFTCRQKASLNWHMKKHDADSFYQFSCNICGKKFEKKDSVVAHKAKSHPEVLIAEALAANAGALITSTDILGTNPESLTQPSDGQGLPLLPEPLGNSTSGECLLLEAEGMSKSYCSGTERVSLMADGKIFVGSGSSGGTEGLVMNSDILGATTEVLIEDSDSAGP
row,Structure (SMILES),ZFP91 degradation code
1,Cc1cc(C)c(NC(=O)NCc2ccc3c(c2)C(=O)N(C2CCC(=O)NC2=O)C3)cc1Cl (centres unmarked) [Compound 85],A
2,Cc1ccc(NC(=O)NCc2ccc3c(c2)C(=O)N(C2CCC(=O)NC2=O)C3)c(Cl)c1Cl (centres unmarked) [Compound 87],A
3,O=C1CCC(N2Cc3ccc(CNC(=O)Nc4cccc(CN5CCOCC5)c4)cc3C2=O)C(=O)N1 (centres unmarked) [Compound 105],B (B represents trace degradation at 30 μM (below 20%))
4,Cc1c(Cl)cc(NC(=O)NCc2ccc3c(c2)C(=O)N(C2CCC(=O)NC2=O)C3)cc1CC1COCOC1 (centres unmarked) [Compound 132],C (C represents weak degradation at 30 μM (below 50%))
5,Cc1c(Cl)cc(NC(=O)NCc2ccc3c(c2)C(=O)N(C2CCC(=O)NC2=O)C3)cc1CN(C)C (centres unmarked) [Compound 75],A
6,Cc1ccc(NC(=O)NCc2ccc3c(c2)C(=O)N(C2CCC(=O)NC2=O)C3)cc1Cl (centres unmarked) [Compound 8],B (B represents trace degradation at 30 μM (below 20%))
7,Cc1c(Cl)cc(NC(=O)NCc2ccc3c(c2)C(=O)N(C2CCC(=O)NC2=O)C3)cc1CN1CCOCC1 (centres unmarked) [Compound 82],A

# Molecular target: T2, CK1alpha (Homo sapiens, UniProt P48729)
# T2 construct: MM1S cells were purchased from ATCC (cat. Number CRL-2974); endogenous in cells; host or cells: MM1S (ATCC CRL-2974)
# Assay: Selectivity determination by Western Blot assay in MM1S cells: CK1alpha
# Assay type: cell-based
# Set-up: key: A represents a no degradation observed at 30 μM; B represents trace degradation at 30 μM (below 20%); C represents weak degradation at 30 μM (below 50%); D represents degradation at 30 μM (>90%); E represents degradation at 3 μM (>90%); F represents degradation at 0.3 μM (>90%)
# Details: MM1S cells, 0.3, 3 and 30 μM, 6 hours
# Method: as §1, §2, §3
# T2 sequence (Q96SW2 whole entry partner): as the sequence (Q96SW2 whole entry partner) above
# T2 sequence (Q16531 2-1140 partner limits assumed): as the sequence (Q16531 2-1140 partner limits assumed) above
# T2 sequence (P48729 whole entry): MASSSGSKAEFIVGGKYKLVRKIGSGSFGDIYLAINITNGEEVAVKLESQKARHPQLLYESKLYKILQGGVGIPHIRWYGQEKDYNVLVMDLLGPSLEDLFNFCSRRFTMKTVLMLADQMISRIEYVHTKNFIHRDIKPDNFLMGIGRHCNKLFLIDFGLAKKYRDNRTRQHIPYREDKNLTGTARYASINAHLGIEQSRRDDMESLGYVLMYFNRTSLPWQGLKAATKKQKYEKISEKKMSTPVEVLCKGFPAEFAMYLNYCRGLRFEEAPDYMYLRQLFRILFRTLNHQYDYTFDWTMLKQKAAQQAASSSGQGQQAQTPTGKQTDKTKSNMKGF
row,Structure (SMILES),CK1alpha degradation code
1,Cc1cc(C)c(NC(=O)NCc2ccc3c(c2)C(=O)N(C2CCC(=O)NC2=O)C3)cc1Cl (centres unmarked) [Compound 85],B (B represents trace degradation at 30 μM (below 20%))
2,Cc1ccc(NC(=O)NCc2ccc3c(c2)C(=O)N(C2CCC(=O)NC2=O)C3)c(Cl)c1Cl (centres unmarked) [Compound 87],A
3,O=C1CCC(N2Cc3ccc(CNC(=O)Nc4cccc(CN5CCOCC5)c4)cc3C2=O)C(=O)N1 (centres unmarked) [Compound 105],A
4,Cc1c(Cl)cc(NC(=O)NCc2ccc3c(c2)C(=O)N(C2CCC(=O)NC2=O)C3)cc1CC1COCOC1 (centres unmarked) [Compound 132],C (C represents weak degradation at 30 μM (below 50%))
5,Cc1c(Cl)cc(NC(=O)NCc2ccc3c(c2)C(=O)N(C2CCC(=O)NC2=O)C3)cc1CN(C)C (centres unmarked) [Compound 75],A
6,Cc1ccc(NC(=O)NCc2ccc3c(c2)C(=O)N(C2CCC(=O)NC2=O)C3)cc1Cl (centres unmarked) [Compound 8],A
7,Cc1c(Cl)cc(NC(=O)NCc2ccc3c(c2)C(=O)N(C2CCC(=O)NC2=O)C3)cc1CN1CCOCC1 (centres unmarked) [Compound 82],A
